Experimental data: US9512107B2, “Therapeutically active compositions and their methods of use” (Agios Pharmaceuticals, Inc., priority 2012, dated 2016)
Residue numbers refer to the chain shown, from its start. pIC50: −log10 of the molar value.

Legend:
IDH2 R172K = target: T1, IDH2 R172K (Homo sapiens, UniProt P48735, R172K); assay: IDH2 R172K enzymatic assay (NADPH cofactor depletion, diaphorase/resazurin readout); assay type: biochemical; conditions: read-out: Enz R172K
T1 sequence (P48735 40-452 R172K): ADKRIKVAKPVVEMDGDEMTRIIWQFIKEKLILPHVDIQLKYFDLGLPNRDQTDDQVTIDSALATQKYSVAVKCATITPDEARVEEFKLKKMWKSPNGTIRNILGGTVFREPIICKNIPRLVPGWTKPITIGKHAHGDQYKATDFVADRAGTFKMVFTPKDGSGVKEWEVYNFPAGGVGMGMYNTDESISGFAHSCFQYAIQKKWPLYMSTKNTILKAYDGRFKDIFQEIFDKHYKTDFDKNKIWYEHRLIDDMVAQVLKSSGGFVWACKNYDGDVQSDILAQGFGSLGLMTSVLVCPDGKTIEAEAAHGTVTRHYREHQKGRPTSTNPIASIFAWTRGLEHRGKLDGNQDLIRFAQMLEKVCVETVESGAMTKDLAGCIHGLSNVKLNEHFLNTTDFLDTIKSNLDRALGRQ
Procedure, shortened: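 Compound was preincubated with IDH2 R172K for 1 h at room temperature, then the reaction was started with substrate mix containing 50 μM NADPH and 6.3 mM α-KG. After another 1 h at room temperature, stop mix with diaphorase and resazurin consumed the remaining NADPH, and resorufin fluorescence was read.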

IDH2 R140Q = target: T2, IDH2 R140Q (Homo sapiens, UniProt P48735, R140Q); assay: IDH2 R140Q enzymatic assay (cofactor depletion, similar format); assay type: biochemical; conditions: read-out: Enz R140Q
T2 sequence (P48735 40-452 R140Q): T1 sequence (P48735 40-452 R172K) with R101Q, K133R

[1] = tested on: U87MG pLVX-IDH2 R140Q-neo cells; assay: U87MG pLVX-IDH2 R140Q-neo cell based assay, 2-HG in media by LC-MS at 48 hours; conditions: Homo sapiens, U-87 MG
Procedure, shortened: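 U87MG cells stably expressing IDH2 R140Q were seeded overnight, then exposed to compound at 0.2% final DMSO at 37 °C, 5% CO2. 2-HG in the medium was quantified by LC-MS at 48 h. Growth inhibition was read by CellTiter-Glo luminescence at 72 h.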

Compound | pIC50 (IDH2 R172K) | pIC50 (IDH2 R140Q) | pIC50 [1]
CC(C)Nc1nc(Nc2cccc(S(C)(=O)=O)c2)nc(-c2nc(C(F)(F)F)ccc2F)n1 [Compound 484, 6-(3-fluoro-6-(trifluoromethyl)pyridin-2-yl)-N2-isopropyl-N4-(3-(methylsulfonyl)phenyl)-1,3,5-triazine-2,4-diamine] | 6.00 to 7.00 | 6.00 to 7.00 | > 7.00
CC(C)Nc1nc(Nc2cc(F)cc(F)c2)nc(-c2cc(Cl)cc(N)n2)n1 [Compound 485, 6-(6-amino-4-chloropyridin-2-yl)-N^2-(3,5-difluorophenyl)-N^4-isopropyl-1,3,5-triazine-2,4-diamine] | 6.00 to 7.00 | 6.00 to 7.00 | > 7.00
Nc1cccc(-c2nc(NCC(F)(F)F)nc(Nc3cc(F)cc(F)c3)n2)n1 [Compound 491, 6-(6-aminopyridin-2-yl)-N2-(3,5-difluorophenyl)-N4-(2,2,2-trifluoroethyl)-1,3,5-triazine-2,4-diamine] | > 7.00 | 6.00 to 7.00 | > 7.00
CC(C)Nc1nc(Nc2cccc(F)c2)nc(-c2cccc(N)n2)n1 [Compound 492, 6-(6-aminopyridin-2-yl)-N2-(3-fluorophenyl)-N4-isopropyl-1,3,5-triazine-2,4-diamine] | > 7.00 | 6.00 to 7.00 | > 7.00
CC(C)(CO)CNc1nc(Nc2ccnc(C(F)(F)F)c2)nc(-c2cccc(Cl)n2)n1 [Compound 495, 3-[4-(6-Chloro-pyridin-2-yl)-6-(2-trifluoromethyl-pyridin-4-ylamino)-[1,3,5]triazin-2-ylamino]-2,2-dimethyl-propan-1-ol] | > 7.00 | 6.00 to 7.00 | > 7.00
CC(C)Nc1nc(Nc2ccnc(C(C)(C)O)c2)nc(-c2cccc(C(F)(F)F)n2)n1 [Compound 496, 2-{4-[4-Isopropylamino-6-(6-trifluoromethyl-pyridin-2-yl)-[1,3,5]triazin-2-ylamino]-pyridin-2-yl}-propan-2-ol] | > 7.00 | 6.00 to 7.00 | > 7.00
CC(C)Nc1nc(Nc2cccc(S(=O)(=O)NCC3CC3)c2)nc(-c2cccc(Cl)n2)n1 [Compound 497, 3-[4-(6-Chloro-pyridin-2-yl)-6-isopropylamino-[1,3,5]triazin-2-ylamino]-N-cyclopropylmethyl-benzenesulfonamide] | 6.00 to 7.00 | 6.00 to 7.00 | > 7.00
CC(C)(C)CNc1nc(Nc2cncc(C#N)c2)nc(-c2cccc(Cl)n2)n1 [Compound 498, 5-[4-(6-Chloro-pyridin-2-yl)-6-(2,2-dimethyl-propylamino)-[1,3,5]triazin-2-ylamino]-nicotinonitrile] | 5.00 to 6.00 | 6.00 to 7.00 | 6.00 to 7.00
COCC(C)Nc1nc(Nc2ccnc(C(F)(F)F)c2)nc(-c2cccc(Cl)n2)n1 (stereo not drawn) [Compound 499, 6-(6-Chloro-pyridin-2-yl)-N-(2-methoxy-1-methyl-ethyl)-N′-(2-trifluoromethyl-pyridin-4-yl)-[1,3,5]triazine-2,4-diamine] | > 7.00 | 6.00 to 7.00 | > 7.00
CC(C)(O)CNc1nc(Nc2ccnc(F)c2)nc(-c2cccc(C(F)(F)F)n2)n1 [Compound 500, 1-[4-(2-Fluoro-pyridin-4-ylamino)-6-(6-trifluoromethyl-pyridin-2-yl)-[1,3,5]triazin-2-ylamino]-2-methyl-propan-2-ol] | > 7.00 | 6.00 to 7.00 | > 7.00
Cc1cc(Nc2nc(NC(C)C)nc(-c3cccc(C(F)(F)F)n3)n2)cnn1 [Compound 501, N-Isopropyl-N′-(6-methyl-pyridazin-4-yl)-6-(6-trifluoromethyl-pyridin-2-yl)-[1,3,5]triazine-2,4-diamine] | 5.00 to 6.00 | 6.00 to 7.00 | 6.00 to 7.00
CC(C)Nc1nc(Nc2cncc(F)c2)nc(-c2cccc(C(F)(F)F)n2)n1 [Compound 503, N-(5-Fluoro-pyridin-3-yl)-N′-isopropyl-6-(6-trifluoromethyl-pyridin-2-yl)-[1,3,5]triazine-2,4-diamine] | > 7.00 | 5.00 to 6.00 | > 7.00
FC(F)(F)c1cc(Nc2nc(NC3C4COCC43)nc(-c3cccc(C(F)(F)F)n3)n2)ccn1 (stereo not drawn) [Compound 504, N-(3-Oxa-bicyclo[3.1.0]hex-6-yl)-N′-(2-trifluoromethyl-pyridin-4-yl)-6-(6-trifluoromethyl-pyridin-2-yl)-[1,3,5]triazine-2,4-diamine] | > 7.00 | 6.00 to 7.00 | > 7.00
N#Cc1cc(Nc2nc(NC3C4COCC43)nc(-c3cccc(C(F)(F)F)n3)n2)ccn1 (stereo not drawn) [Compound 505, 4-[4-(3-Oxa-bicyclo[3.1.0]hex-6-ylamino)-6-(6-trifluoromethyl-pyridin-2-yl)-[1,3,5]triazin-2-ylamino]-pyridine-2-carbonitrile] | 6.00 to 7.00 | 6.00 to 7.00 | > 7.00
Fc1cncc(Nc2nc(NC3C4COCC43)nc(-c3cccc(Cl)n3)n2)c1 (stereo not drawn) [Compound 511, 6-(6-Chloro-pyridin-2-yl)-N-(5-fluoro-pyridin-3-yl)-N′-(3-oxa-bicyclo[3.1.0]hex-6-yl)-[1,3,5]triazine-2,4-diamine] | 6.00 to 7.00 | 6.00 to 7.00 | > 7.00
Fc1ccc(Nc2nc(NC3C4COCC43)nc(-c3cccc(Cl)n3)n2)cn1 (stereo not drawn) [Compound 512, 6-(6-Chloro-pyridin-2-yl)-N-(6-fluoro-pyridin-3-yl)-N′-(3-oxa-bicyclo[3.1.0]hex-6-yl)-[1,3,5]triazine-2,4-diamine] | 6.00 to 7.00 | 6.00 to 7.00 | > 7.00
CC(C)Nc1nc(Nc2ccnc(C(C)(F)F)c2)nc(-c2cccc(Cl)n2)n1 [Compound 513, 6-(6-Chloro-pyridin-2-yl)-N-[2-(1,1-difluoro-ethyl)-pyridin-4-yl]-N′-isopropyl-[1,3,5]triazine-2,4-diamine] | 6.00 to 7.00 | 5.00 to 6.00 | > 7.00
CC(C)Nc1nc(Nc2ccnc(C(C)(C)O)c2)nc(-c2cccc(Cl)n2)n1 [Compound 514, 2-{4-[4-(6-Chloro-pyridin-2-yl)-6-isopropylamino-[1,3,5]triazin-2-ylamino]-pyridin-2-yl}-propan-2-ol] | > 7.00 | 6.00 to 7.00 | > 7.00
CC1CC1Nc1nc(Nc2ccnc(C(F)(F)F)c2)nc(-c2ccccn2)n1 (stereo not drawn) [Compound 516, N-(2-Methyl-cyclopropyl)-6-pyridin-2-yl-N′-(2-trifluoromethyl-pyridin-4-yl)-[1,3,5]triazine-2,4-diamine] | > 7.00 | 6.00 to 7.00 | > 7.00
CC(C)(C)CNc1nc(Nc2ccnc(C(F)(F)F)c2)nc(-c2ccccn2)n1 [Compound 517, N-(2,2-Dimethyl-propyl)-6-pyridin-2-yl-N′-(2-trifluoromethyl-pyridin-4-yl)-[1,3,5]triazine-2,4-diamine] | > 7.00 | 6.00 to 7.00 | > 7.00
CC(C)Nc1nc(Nc2cccc(S(=O)(=O)NCC(F)(F)F)c2)nc(-c2cccc(Cl)n2)n1 [Compound 518, 3-[4-(6-Chloro-pyridin-2-yl)-6-isopropylamino-[1,3,5]triazin-2-ylamino]-N-(2,2,2-trifluoro-ethyl)-benzenesulfonamide] | > 7.00 | 6.00 to 7.00 | > 7.00
CC(C)Nc1nc(Nc2cccc(S(=O)(=O)NCC(F)(F)F)c2)nc(-c2cccc(C(F)(F)F)n2)n1 [Compound 519] | 6.00 to 7.00 | 6.00 to 7.00 | > 7.00
CC(C)(C)CNc1nc(Nc2cncnc2)nc(-c2cccc(C(F)(F)F)n2)n1 [Compound 521, N-(2,2-Dimethyl-propyl)-N′-pyrimidin-5-yl-6-(6-trifluoromethyl-pyridin-2-yl)-[1,3,5]triazine-2,4-diamine] | > 7.00 | 6.00 to 7.00 | > 7.00
CC(C)Nc1nc(Nc2ccnc(C(F)(F)F)c2)nc(-c2nccc(C(F)(F)F)n2)n1 [Compound 522, N2-isopropyl-N4-(2-(trifluoromethyl)pyridin-4-yl)-6-(4-(trifluoromethyl)pyrimidin-2-yl)-1,3,5-triazine-2,4-diamine] | 6.00 to 7.00 | 6.00 to 7.00 | > 7.00
CC(C)(C)CNc1nc(Nc2ccnc(C(F)(F)F)c2)nc(-c2nccc(C(F)(F)F)n2)n1 [Compound 523, N2-neopentyl-N4-(2-(trifluoromethyl)pyridin-4-yl)-6-(4-(trifluoromethyl)pyrimidin-2-yl)-1,3,5-triazine-2,4-diamine] | > 7.00 | 6.00 to 7.00 | > 7.00
